Experimental findings from ChEMBL document CHEMBL1697692, “Developing structure-activity relationships for the prediction of hepatotoxicity” (Chem Res Toxicol, 2010) are described below.

Structures are written as SMILES. Numbered stars: 1 amine (or outer) side, 2 acyl side, 3 side chain; on linkers, the order of the positions; unused ones are H or OH. Bridge positions count the residues as written; N and C are the ends. Square brackets hold non-standard residues; d marks the D form. Peptide text beside a SMILES is read from it. * marks the point of attachment. ξ: configuration not given here. X1 = N=C1NCCC([C@H](N[*:1])C(=O)[*:2])N1; ΔAla(Z-3-ureido) = NC(=O)N/C=C(\N)C(=O)O; ξβ3hOrn = NCCCC(N)CC(=O)*; Dap = NC[C@H](N)C(=O)O

In the data set the test system is Hepatotoxicity. The experiment in a line: Literature-mined public compounds from Greene et al multi-species hepatotoxicity modelling dataset.
In the case of `CC(O)(CS(=O)(=O)c1ccc(F)cc1)C(=O)Nc1ccc(C#N)c(C(F)(F)F)c1` (stereo not given) [BICALUTAMIDE], the Hepatotoxicity entry is given as “HH: Evidence of human hepatotoxicity”.

As to `O=C(O)CCCC[C@@H]1SC[C@@H]2NC(=O)N[C@@H]21` [BIOTIN], the Hepatotoxicity result was “NE: No evidence of hepatotoxicity in any species”.

Regarding `CCCC[C@@H](CC)COC(=O)c1ccccc1C(=O)OC[C@@H](CC)CCCC` [BIS(2-ETHYLHEXYL)PHTHALATE], the Hepatotoxicity entry was “AH: Evidence for animal hepatotoxicity but not tested in humans”.

On to `Oc1c(Cl)cc(Cl)cc1Sc1cc(Cl)cc(Cl)c1O` [BITHIONOL], for which the Hepatotoxicity result was “HH: Evidence of human hepatotoxicity”.

`COc1ccccc1Oc1c(NS(=O)(=O)c2ccc(C(C)(C)C)cc2)nc(-c2ncccn2)nc1OCCO` [BOSENTAN]: the Hepatotoxicity result is given as “HH: Evidence of human hepatotoxicity”.

On to `Nc1c(CC(=O)O)cccc1C(=O)c1ccc(Br)cc1` [BROMFENAC], for which the Hepatotoxicity result was “HH: Evidence of human hepatotoxicity”.

Regarding `Brc1ccccc1` [BROMOBENZENE], the Hepatotoxicity result was “HH: Evidence of human hepatotoxicity”.

As to `NCCBr` [BROMOETHANAMINE], the Hepatotoxicity entry was “AH: Evidence for animal hepatotoxicity but not tested in humans”.

Take `CN(C)CCC(c1ccc(Br)cc1)c1ccccn1.O=C(O)/C=C\C(=O)O` (stereo not given) [BROMPHENIRAMINE MALEATE]: the Hepatotoxicity entry was “NE: No evidence of hepatotoxicity in any species”.

`CCCCNc1cc(C(=O)O)cc(S(N)(=O)=O)c1Oc1ccccc1` [BUMETANIDE]: the Hepatotoxicity entry is listed as “HH: Evidence of human hepatotoxicity”.

As to `CCCCN1CCCCC1C(=O)Nc1c(C)cccc1C` (stereo not given) [BUPIVACAINE], the Hepatotoxicity entry was “NE: No evidence of hepatotoxicity in any species”.

For `CC(NC(C)(C)C)C(=O)c1cccc(Cl)c1.Cl` (stereo not given) [BUPROPION HYDROCHLORIDE], the Hepatotoxicity entry is given as “WE: Weak evidence (<10 case reports) of human hepatotoxicity”.

On to `O=C1CC2(CCCC2)CC(=O)N1CCCCN1CCN(c2ncccn2)CC1` [BUSPIRONE], for which the Hepatotoxicity result is recorded as “NE: No evidence of hepatotoxicity in any species”.

For the molecule `CS(=O)(=O)OCCCCOS(C)(=O)=O` [BUSULFAN], the Hepatotoxicity result is recorded as “HH: Evidence of human hepatotoxicity”.

For `Clc1ccc(CCC(Cn2ccnc2)Sc2c(Cl)cccc2Cl)cc1.O=[N+]([O-])O` (stereo not given) [BUTOCONAZOLE NITRATE], the Hepatotoxicity result is recorded as “NE: No evidence of hepatotoxicity in any species”.

For `Cc1cc(C(C)(C)C)c(O)c(C(C)(C)C)c1` [BUTYLATED HYDROXYTOLUENE], the Hepatotoxicity entry is listed as “AH: Evidence for animal hepatotoxicity but not tested in humans”.

With `Cn1c(=O)c2c(ncn2C)n(C)c1=O` [CAFFEINE], the Hepatotoxicity entry is “NE: No evidence of hepatotoxicity in any species”.

For the molecule `C=C1CC[C@H](O)C/C1=C/C=C1\CCC[C@]2(C)[C@@H]([C@H](C)CCCC(C)(C)O)CC[C@@H]12.O` [CALCIFEDIOL], the Hepatotoxicity result is “HH: Evidence of human hepatotoxicity”.

As for `CC(C)(CO)[C@@H](O)C(=O)NCCC(=O)[O-].CC(C)(CO)[C@@H](O)C(=O)NCCC(=O)[O-].[Ca+2]` [CALCIUM PANTOTHENATE], the Hepatotoxicity result was “NE: No evidence of hepatotoxicity in any species”.

Regarding `C[C@@H]1NC(=O)[C@@H](N)CNC(=O)[C@H](C2CCNC(=N)N2)NC(=O)/C(=C/NC(N)=O)NC(=O)[C@H](CNC(=O)CC(N)CCCN)NC1=O.N=C1NCCC([C@@H]2NC(=O)/C(=C/NC(N)=O)NC(=O)[C@H](CNC(=O)CC(N)CCCN)NC(=O)[C@H](CO)NC(=O)[C@@H](N)CNC2=O)N1.O=S(=O)(O)O.O=S(=O)(O)O` (stereo partly drawn) [CAPREOMYCIN SULFATE] (H-[Dap]S[Dap](ξβ3hOrn)[ΔAla(Z-3-ureido)][X1]; lactam 1-C), the Hepatotoxicity entry is given as “NE: No evidence of hepatotoxicity in any species”.

In the case of `COc1cc(CNC(=O)CCCC/C=C/C(C)C)ccc1O` [CAPSAICIN], the Hepatotoxicity entry is “NE: No evidence of hepatotoxicity in any species”.

For `C[C@H](CS)C(=O)N1CCC[C@H]1C(=O)O` [CAPTOPRIL], the Hepatotoxicity result is reported as “HH: Evidence of human hepatotoxicity”.

Take `NC(=O)N1c2ccccc2C=Cc2ccccc21` [CARBAMAZEPINE]: the Hepatotoxicity entry is given as “HH: Evidence of human hepatotoxicity”.

In the case of `COC(=O)Nc1nc2ccccc2[nH]1` [CARBENDAZIM], the Hepatotoxicity result is listed as “AH: Evidence for animal hepatotoxicity but not tested in humans”.

For the molecule `CC1(C)[C@@H](OC(=O)CCC(=O)[O-])CC[C@]2(C)[C@H]3C(=O)C=C4[C@@H]5C[C@@](C)(C(=O)[O-])CC[C@]5(C)CC[C@@]4(C)[C@]3(C)CC[C@@H]12.[Na+].[Na+]` [CARBENOXOLONE SODIUM], the Hepatotoxicity result was “NE: No evidence of hepatotoxicity in any species”.

Regarding `C[C@@](Cc1ccc(O)c(O)c1)(NN)C(=O)O.O` [CARBIDOPA], the Hepatotoxicity result was “NE: No evidence of hepatotoxicity in any species”.

`ClC(Cl)(Cl)Cl` [CARBON TETRACHLORIDE]: the Hepatotoxicity entry is “HH: Evidence of human hepatotoxicity”.

Regarding `CC1=C(C(=O)O)N2C(=O)[C@@H](NC(=O)[C@H](N)c3ccc(O)cc3)[C@H]2SC1` [CEFADROXIL], the Hepatotoxicity entry was “HH: Evidence of human hepatotoxicity”.

In the case of `Cn1nnnc1SCC1=C(C(=O)[O-])N2C(=O)[C@@H](NC(=O)[C@H](O)c3ccccc3)[C@H]2SC1.[Na+]` [CEFAMANDOLE SODIUM], the Hepatotoxicity result is “HH: Evidence of human hepatotoxicity”.

`CCN1CCN(C(=O)N[C@@H](C(=O)N[C@@H]2C(=O)N3C(C(=O)O)=C(CSc4nnnn4C)CS[C@H]23)c2ccc(O)cc2)C(=O)C1=O.O.O` [CEFOPERAZONE DIHYDRATE]: the Hepatotoxicity entry is “NE: No evidence of hepatotoxicity in any species”.

With `CO[C@@]1(NC(=O)C2SC(=C(C(N)=O)C(=O)O)S2)C(=O)N2C(C(=O)O)=C(CSc3nnnn3C)CS[C@@H]21` (stereo not given in full) [CEFOTETAN], the Hepatotoxicity result is on record as “NE: No evidence of hepatotoxicity in any species”.

For the molecule `CN(C)CCn1nnnc1SCC1=C(C(=O)O)N2C(=O)[C@@H](NC(=O)Cc3csc(N)n3)[C@H]2SC1.Cl.Cl` [CEFOTIAM HYDROCHLORIDE], the Hepatotoxicity entry is “HH: Evidence of human hepatotoxicity”.

Take `CO[C@@]1(NC(=O)Cc2cccs2)C(=O)N2C(C(=O)O)=C(COC(N)=O)CS[C@@H]21` [CEFOXITIN]: the Hepatotoxicity entry was “HH: Evidence of human hepatotoxicity”.

For the molecule `CC(C)(O/N=C(\C(=O)N[C@@H]1C(=O)N2C(C(=O)[O-])=C(C[n+]3ccccc3)CS[C@H]12)c1csc(N)n1)C(=O)O` [CEFTAZIDIME], the Hepatotoxicity entry was “WE: Weak evidence (<10 case reports) of human hepatotoxicity”.

`O=C(Cc1cccs1)N[C@@H]1C(=O)N2C(C(=O)[O-])=C(C[n+]3ccccc3)CS[C@H]12` [CEPHALORIDINE]: the Hepatotoxicity result was “AH: Evidence for animal hepatotoxicity but not tested in humans”.

Take `CC(=O)OCC1=C(C(=O)[O-])N2C(=O)[C@@H](NC(=O)Cc3cccs3)[C@H]2SC1.[Na+]` [CEPHALOTHIN SODIUM]: the Hepatotoxicity entry is reported as “HH: Evidence of human hepatotoxicity”.

For `CC(=O)OCC1=C(C(=O)[O-])N2C(=O)[C@@H](NC(=O)CSc3ccncc3)[C@H]2SC1.[Na+]` [CEPHAPIRIN SODIUM], the Hepatotoxicity entry is “NE: No evidence of hepatotoxicity in any species”.

Take `CC1=C(C(=O)O)N2C(=O)[C@@H](NC(=O)[C@H](N)C3=CCC=CC3)[C@H]2SC1` [CEPHRADINE]: the Hepatotoxicity result was “NE: No evidence of hepatotoxicity in any species”.

For the molecule `COCc1c(C(C)C)nc(C(C)C)c(/C=C/[C@@H](O)C[C@@H](O)CC(=O)O)c1-c1ccc(F)cc1` [CERIVASTATIN], the Hepatotoxicity entry was “HH: Evidence of human hepatotoxicity”.

For `C[C@H](CCC(=O)O)[C@H]1CC[C@H]2[C@@H]3[C@H](O)C[C@@H]4C[C@H](O)CC[C@]4(C)[C@H]3CC[C@]12C` [CHENODIOL], the Hepatotoxicity result is given as “HH: Evidence of human hepatotoxicity”.

In the case of `CCCCCCCCCCCCCCCC(=O)OC[C@@H](NC(=O)C(Cl)Cl)[C@H](O)c1ccc([N+](=O)[O-])cc1` [CHLORAMPHENICOL PALMITATE], the Hepatotoxicity entry is listed as “HH: Evidence of human hepatotoxicity”.

With `ClC(Cl)Cl` [CHLOROFORM], the Hepatotoxicity entry is given as “AH: Evidence for animal hepatotoxicity but not tested in humans”.

Turning to `CCN(CC)CCCC(C)Nc1ccnc2cc(Cl)ccc12.O=P(O)(O)O.O=P(O)(O)O` (stereo not given) [CHLOROQUINE PHOSPHATE], the Hepatotoxicity entry is on record as “WE: Weak evidence (<10 case reports) of human hepatotoxicity”.

Regarding `CN(C)CCC(c1ccc(Cl)cc1)c1ccccn1.O=C(O)/C=C\C(=O)O` (stereo not given) [CHLORPHENIRAMINE MALEATE], the Hepatotoxicity entry is recorded as “HH: Evidence of human hepatotoxicity”.

With `CN(C)CCCN1c2ccccc2Sc2ccc(Cl)cc21` [CHLORPROMAZINE], the Hepatotoxicity entry is given as “HH: Evidence of human hepatotoxicity”.

`CCCNC(=O)NS(=O)(=O)c1ccc(Cl)cc1` [CHLORPROPAMIDE]: the Hepatotoxicity result was “HH: Evidence of human hepatotoxicity”.

Take `CN(C)[C@@H]1C(O)=C(C(N)=O)C(=O)[C@@]2(O)C(O)=C3C(=O)c4c(O)ccc(Cl)c4[C@@](C)(O)[C@H]3C[C@@H]12.Cl` [CHLORTETRACYCLINE HYDROCHLORIDE]: the Hepatotoxicity result is on record as “HH: Evidence of human hepatotoxicity”.

For `Cc1cc(C2CCCCC2)n(O)c(=O)c1` [CICLOPIROX], the Hepatotoxicity entry was “NE: No evidence of hepatotoxicity in any species”.

Regarding `CC1(COc2ccc(CC3SC(=O)NC3=O)cc2)CCCCC1` (stereo not given) [CIGLITAZONE], the Hepatotoxicity entry was “HH: Evidence of human hepatotoxicity”.

Regarding `CN/C(=N/CCSCc1nc[nH]c1C)NC#N` [CIMETIDINE], the Hepatotoxicity result is “WE: Weak evidence (<10 case reports) of human hepatotoxicity”.

As for `O=C(O)c1cc(-c2ccccc2)nc2ccccc12` [CINCHOPHEN], the Hepatotoxicity result was “HH: Evidence of human hepatotoxicity”.

On to `CC(C)(Oc1ccc(C2CC2(Cl)Cl)cc1)C(=O)O` (stereo not given) [CIPROFIBRATE], for which the Hepatotoxicity entry is listed as “HH: Evidence of human hepatotoxicity”.

Take `COc1cc(N)c(Cl)cc1C(=O)NC1CCN(CCCOc2ccc(F)cc2)CC1OC` (stereo not given) [CISAPRIDE]: the Hepatotoxicity entry is reported as “NE: No evidence of hepatotoxicity in any species”.

Take `CN(C)CCCC1(c2ccc(F)cc2)OCc2cc(C#N)ccc21` (stereo not given) [CITALOPRAM]: the Hepatotoxicity entry is on record as “WE: Weak evidence (<10 case reports) of human hepatotoxicity”.

Consider `C[N+](C)(C)CCOP(=O)(O)OP(=O)([O-])OC[C@H]1O[C@@H](n2ccc(N)nc2=O)[C@H](O)[C@@H]1O` [CITICOLINE], for which the Hepatotoxicity result is listed as “NE: No evidence of hepatotoxicity in any species”.
